Target: T1, papain (Carica papaya, UniProt P00784)
T1 sequence (P00784 134-345): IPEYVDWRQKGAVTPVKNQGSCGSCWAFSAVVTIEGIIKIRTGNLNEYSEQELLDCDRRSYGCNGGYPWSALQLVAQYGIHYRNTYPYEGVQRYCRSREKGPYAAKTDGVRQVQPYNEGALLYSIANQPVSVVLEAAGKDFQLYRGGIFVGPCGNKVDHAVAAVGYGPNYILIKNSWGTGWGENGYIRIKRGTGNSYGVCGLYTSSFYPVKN
Experiment: Papain digestion to remove drug payloads from ADC linkers, monitored by LC-MS peak areas of surrogate peptides
Assay type: biochemical
Conditions: papain to substrate ratio 1:200; peak areas of peptides containing cleaved linker
Method: According to the concentration of ADC samples, transfer 25 μg of each ADC sample to a new microcentrifuge tube and add water to a total volume of 10 μL. Dilute 20 uL of papain suspension (10 mg/mL) with 180 uL of papain digestion buffer, incubate at 37° C. for 30 min. Dilute 30 uL of papain (nominal concentration of 1 mg/mL) with 120 uL of activation buffer to a nominal concentration of 0.2 mg/mL. Measure papain concentration with UV (ultra-violate) measurement at 280 nm and 320 nm using papain activation buffer as the blank buffer. Dilute activated papain to a final concentration of 0.1 mg/mL with papain activation buffer. Add 1.25 uL of 0.1 mg/mL papain solution (enzyme:substrate ratio is 1:200) to intact ADC, incubate at 37° C. for 1 h. Add 0.5 μL of 0.1 M TCEP-HCl to each sample. Vortex the samples for 3 seconds, and then spin down the samples using a Minicentrifuge for 3 seconds. Incubate samples at 95° C. for 20 minutes with shaking at 800 rpm in a thermomixer. Following incubation, cool down the samples to room temperature for 5 minutes. Spin down the condensation using a Minicentrifuge for 3 seconds. Add 6 μL of 8 M urea in 1 M Tris-HCl, pH 7.5 to each sample. […]
Papain was used to remove the payloads of MAB1-LK1 ADCs. […] Two tryptic peptides, e.g., SCDK (serine-cysteine-aspartic acid-lysine) (SEQ ID NO: 7) and GEC (glycine-glutamic acid-cysteine), were analyzed using LC-MS. […]

| Substance | incubation time for completion of papain digestion to remove drug payloads (cleaved linker monitored) |
| --- | --- |
| mal-amido-PEG8-VA-PABA [LK1] | one |
| mal-amido-Val-Cit-PABA [LK3] | one |

Source: patent US11786606B2, “Site-specific quantitation of drug conjugations” (Regeneron Pharmaceuticals, Inc., priority 2019, dated 2023)
